Our source for the IC50 and viability, T/C values is PubChem BioAssay AID1919003 (Molecular Pharmacology Branch, DTP, NCI, 2023).

“And” between values parts separate entries of the source, which are not always exact repeats. Equal entries are not always repeated.

For this experiment, the system named is 786-0 complex spheroids with HUVEC/MSC, growth % test/control. Kind of experiment: Anticancer human tumor 786-0 cell line growth inhibition [AhR].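 For all read-outs here: compound exposure lasted seven days before the read-out.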 Conditions: for viability, T/C: stronger effect = lower value. An outline of the steps:
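Agents were dosed in half-log steps down from roughly clinical Cmax, or from 10 microM where Cmax was unknown, alone and with AhR antagonists. Read-out: percent test/control growth of tumor spheroids containing HUVEC and MSC stromal cells.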

Where [1] appears, read: curve of first compound, second compound 0.1 µM.
The mark [2] stands for this setting: curve of first compound, second compound 0.316 µM.
Where [3] appears, read: curve of first compound, second compound 1 µM.
Where [4] appears, read: curve of first compound, second compound 3.16 µM.
[5] abbreviates: curve of first compound, second compound 10 µM.
Setting [6] is: second compound 0.1 µM, first compound 0.0316 µM.
The mark [7] stands for this setting: second compound 0.1 µM, first compound 0.1 µM.
[8] abbreviates: second compound 0.316 µM, first compound 0.0316 µM.
Setting [9] is: second compound 0.316 µM, first compound 0.1 µM.
Setting [10] is: second compound 1 µM, first compound 0.0316 µM.
[11] abbreviates: second compound 1 µM, first compound 0.1 µM.
[12] abbreviates: second compound 3.16 µM, first compound 0.0316 µM.
Setting [13] is: second compound 3.16 µM, first compound 0.1 µM.
Setting [14] is: second compound 10 µM, first compound 0.0316 µM.
The mark [15] stands for this setting: second compound 10 µM, first compound 0.1 µM.

The term IC50 denotes the point on the concentration scale where inhibition reaches its midpoint. For orientation: viability, T/C means the ratio of treated to control. Regarding `Cn1ncnc1C1c2n[nH]c(=O)c3cc(F)cc(c23)NC1c1ccc(F)cc1` (centres undefined) + Cc1ccccc1N=Nc1ccc(NC(=O)c2ccnn2C)c(C)c1, the IC50 was greater than 100 nM under setting [1]; greater than 100 nM under setting [2]; greater than 100 nM under setting [3]; greater than 100 nM under setting [4]; greater than 100 nM under setting [5]. In addition, the viability, T/C (second compound 0.1 µM, first compound 0.000316 µM) is 104%; the viability, T/C (second compound 0.1 µM, first compound 0.001 µM) was 102%; the viability, T/C (second compound 0.1 µM, first compound 0.00316 µM) was 107%; the viability, T/C (second compound 0.1 µM, first compound 0.01 µM) is 101%; the viability, T/C under setting [6] is 101%; the viability, T/C under setting [7] was 107%. For the same compound, the viability, T/C runs as follows: (second compound 0.316 µM, first compound 0.000316 µM) 103%; (second compound 0.316 µM, first compound 0.001 µM) 106%; (second compound 0.316 µM, first compound 0.00316 µM) 106%; (second compound 0.316 µM, first compound 0.01 µM) 106%; under setting [8], 110%; under setting [9], 111%. The viability, T/C is 101% (second compound 1 µM, first compound 0.000316 µM); 106% (second compound 1 µM, first compound 0.001 µM); 108% (second compound 1 µM, first compound 0.00316 µM); 117% (second compound 1 µM, first compound 0.01 µM); 99.7% under setting [10]; 110% under setting [11]. For the same compound, the viability, T/C reads like this: (second compound 3.16 µM, first compound 0.000316 µM) 92.3%; (second compound 3.16 µM, first compound 0.001 µM) 105%; (second compound 3.16 µM, first compound 0.00316 µM) 92%; (second compound 3.16 µM, first compound 0.01 µM) 94%; under setting [12], 88.9%; under setting [13], 91.2%. The viability, T/C runs as follows: (second compound 10 µM, first compound 0.000316 µM) 98.6%; (second compound 10 µM, first compound 0.001 µM) 112%; (second compound 10 µM, first compound 0.00316 µM) 90.5%; (second compound 10 µM, first compound 0.01 µM) 93.5%; under setting [14], 95.3%; under setting [15], 112%.
With `NS(=O)(=O)OCC1CC(n2ccc3c(NC4CCc5ccccc54)ncnc32)CC1O` (centres undefined) + Cc1ccccc1N=Nc1ccc(NC(=O)c2ccnn2C)c(C)c1, the IC50 was found to be 563 nM under setting [1]; 652 nM under setting [2]; 499 nM under setting [3]; 437 nM under setting [4]; 374 nM under setting [5]. Also, the viability, T/C is, setting by setting: under setting [6], 90%; under setting [7], 78.6%; (second compound 0.1 µM, first compound 0.316 µM) 65.5%; (second compound 0.1 µM, first compound 1 µM) 37%; (second compound 0.1 µM, first compound 3.16 µM) 8.68%; (second compound 0.1 µM, first compound 10 µM) 5.47%. The viability, T/C by setting is: under setting [8], 87.3%; under setting [9], 69.5%; (second compound 0.316 µM, first compound 0.316 µM) 68.1%; (second compound 0.316 µM, first compound 1 µM) 42.2%; (second compound 0.316 µM, first compound 3.16 µM) 10.6%; (second compound 0.316 µM, first compound 10 µM) 6.57%. The viability, T/C runs as follows: under setting [10], 88%; under setting [11], 68%; (second compound 1 µM, first compound 0.316 µM) 63.2%; (second compound 1 µM, first compound 1 µM) 37.5%; (second compound 1 µM, first compound 3.16 µM) 9.47%; (second compound 1 µM, first compound 10 µM) 5.05%. Further, the viability, T/C is, setting by setting: under setting [12], 73.8%; under setting [13], 65%; (second compound 3.16 µM, first compound 0.316 µM) 59.4%; (second compound 3.16 µM, first compound 1 µM) 29.1%; (second compound 3.16 µM, first compound 3.16 µM) 9.11%; (second compound 3.16 µM, first compound 10 µM) 4.17%. Further, the viability, T/C under setting [14] is 76.1%; the viability, T/C under setting [15] is 69.5%; the viability, T/C (second compound 10 µM, first compound 0.316 µM) was 54.3%; the viability, T/C (second compound 10 µM, first compound 1 µM) is 27.4%; the viability, T/C (second compound 10 µM, first compound 3.16 µM) was 11.3%; the viability, T/C (second compound 10 µM, first compound 10 µM) is 6.68%.
As for `O=C(C=Cn1cnc(-c2cc(C(F)(F)F)cc(C(F)(F)F)c2)n1)NNc1cnccn1` + CC(CO)NC(=O)c1cc(-c2ccc(Cl)cc2)nn(-c2cnn(C)c2)c1=O, the IC50 is, setting by setting: under setting [1], 278 nM; under setting [2], 251 nM; under setting [3], 242 nM; under setting [4], 246 nM; under setting [5], 278 nM. Moreover, the viability, T/C is, setting by setting: (second compound 0.1 µM, first compound 0.00949 µM) 108%; (second compound 0.1 µM, first compound 0.03 µM) 110%; (second compound 0.1 µM, first compound 0.0949 µM) 107%; (second compound 0.1 µM, first compound 0.3 µM) 45.5%; (second compound 0.1 µM, first compound 0.949 µM) 25.7%; (second compound 0.1 µM, first compound 3 µM) 10.5%. In addition, the viability, T/C (second compound 0.316 µM, first compound 0.00949 µM) is 111%; the viability, T/C (second compound 0.316 µM, first compound 0.03 µM) was 113%; the viability, T/C (second compound 0.316 µM, first compound 0.0949 µM) was 112%; the viability, T/C (second compound 0.316 µM, first compound 0.3 µM) is 38.7%; the viability, T/C (second compound 0.316 µM, first compound 0.949 µM) is 28.2%; the viability, T/C (second compound 0.316 µM, first compound 3 µM) is 11%. Further, the viability, T/C by setting is: (second compound 1 µM, first compound 0.00949 µM) 105%; (second compound 1 µM, first compound 0.03 µM) 115%; (second compound 1 µM, first compound 0.0949 µM) 113%; (second compound 1 µM, first compound 0.3 µM) 36%; (second compound 1 µM, first compound 0.949 µM) 24.5%; (second compound 1 µM, first compound 3 µM) 9.93%. For the same compound, the viability, T/C runs as follows: (second compound 3.16 µM, first compound 0.00949 µM) 110%; (second compound 3.16 µM, first compound 0.03 µM) 116%; (second compound 3.16 µM, first compound 0.0949 µM) 106%; (second compound 3.16 µM, first compound 0.3 µM) 37.9%; (second compound 3.16 µM, first compound 0.949 µM) 22.9%; (second compound 3.16 µM, first compound 3 µM) 9.29%. Moreover, the viability, T/C is, setting by setting: (second compound 10 µM, first compound 0.00949 µM) 119%; (second compound 10 µM, first compound 0.03 µM) 122%; (second compound 10 µM, first compound 0.0949 µM) 107%; (second compound 10 µM, first compound 0.3 µM) 44.8%; (second compound 10 µM, first compound 0.949 µM) 23.6%; (second compound 10 µM, first compound 3 µM) 10.6%.
With `CC1COCCN1c1cc(-c2ccnn2C)c2ccnc(-c3ccn[nH]3)c2n1` (centres undefined), the viability, T/C reads like this: (compound 0.00316 µM) 104% and 102% and 103%; (compound 0.01 µM) 103% and 104% and 94.9%; (compound 0.0316 µM) 101% and 104% and 88.6%; (compound 0.1 µM) 56.4% and 92% and 57.7%; (compound 0.316 µM) 16.5% and 26.5% and 11.5%; (compound 1 µM) 4.64% and 9.13% and 3.92%. The IC50 (curve of compound) is 123 nM and 209 nM and 118 nM.
As for `Nc1ccn(C2OC(CO)C(O)C2(F)F)c(=O)n1` (centres undefined), the viability, T/C (compound 0.0316 µM) is 5.98% and 8.17% and 4.44%; the viability, T/C (compound 0.1 µM) is 6.03% and 7.13% and 4.49%; the viability, T/C (compound 0.316 µM) is 4.27% and 6.35% and 5.28%; the viability, T/C (compound 1 µM) was 4.72% and 8.77% and 4.12%; the viability, T/C (compound 3.16 µM) is 4.82% and 7.86% and 5.09%; the viability, T/C (compound 10 µM) was 5.31% and 7.65% and 6.29%. The IC50 (curve of compound) is less than 31.6 nM.
